Several values for one entry are separate records, joined by “and”; a condition that tells them apart may be missing. Identical values can stand only once.
Legend:
SARS-CoV-2 (B.1) = assay: Anti-SARS-CoV-2 activity in Vero E6 cells (viral yield by qRT-PCR); type: cell-based
[1] = CCK-8 cell viability assay; type: cell-based, African green monkey; conditions: African green monkey; Vero E6 cells, 48 h, CCK8
Summary of the method: (§1)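 Vero E6 cells, 20,000/well, exposed to compound at 0–200 μM (0, 0.01, 0.1, 1, 5, 10, 50, 75, 100, 200 μM) for 48 h; viability read by CCK-8 and expressed as percentage versus drug concentration, mean ± SD.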

Vero E6 cells = assay: CCK-8 cell viability assay; type: cell-based, African green monkey; conditions: individual replicate values, Fig.S4
Summary of the method: as §1

[2] = test system: SARS-CoV-2 (Delta, B.1.617.2); assay: microbe, parasite or virus in culture; type: cell-based; conditions: for % Inhibition: delta
[3] = test system: SARS-CoV-2 (Beta, B.1.351); assay: microbe, parasite or virus in culture; type: cell-based; conditions: for % Inhibition: beta
[4] = test system: SARS-CoV-2 (B.1) in Huh7 cells; assay: Anti-SARS-CoV-2 activity in Huh7 cells (viral yield by qRT-PCR); type: cell-based; conditions: B.1, MOI 0.05, 48 h
[5] = test system: SARS-CoV-2 replicon system (pBAC-SARS-CoV-2-Replicon-Luc); assay: microbe, parasite or virus in culture; type: cell-based; conditions: Severe acute respiratory syndrome coronavirus 2, HEK-293T, 60 h

CC(C)CC(=O)OC[C@H]1O[C@@](C#N)(c2ccc3c(N)ncnn23)[C@H](O)[C@@H]1O [ATV017]
% Inhibition (SARS-CoV-2 (B.1); 0.1 μM, replicates, sheet Fig.S3): 0% | % Inhibition (SARS-CoV-2 (B.1); 0.5 μM, replicates, sheet Fig.S3): 0% | % Inhibition (SARS-CoV-2 (B.1); 1 μM, replicates, sheet Fig.S3): 65.5016% | % Inhibition (SARS-CoV-2 (B.1); 2 μM, replicates, sheet Fig.S3): 89.9686% | % Inhibition (SARS-CoV-2 (B.1); 5 μM, replicates, sheet Fig.S3): 91.0527% | % Inhibition (SARS-CoV-2 (B.1); 10 μM, replicates, sheet Fig.S3): 91.8254% | % Inhibition (SARS-CoV-2 (B.1); B.1, 0.01 uM, Vero E6, replicates): 0% | % Inhibition (SARS-CoV-2 (B.1); B.1, 0.1 uM, Vero E6, replicates): 0% | % Inhibition (SARS-CoV-2 (B.1); B.1, 0.25 uM, Vero E6, replicates): 0% | % Inhibition (SARS-CoV-2 (B.1); B.1, 0.5 uM, Vero E6, replicates): 0% | % Inhibition (SARS-CoV-2 (B.1); B.1, 1 uM, Vero E6, replicates): 0% | % Inhibition (SARS-CoV-2 (B.1); B.1, 5 uM, Vero E6, replicates, 5 µM): 99.7611% | % Inhibition (SARS-CoV-2 (B.1); B.1, 10 uM, Vero E6, replicates, 10 µM): 99.9908% | % Inhibition (SARS-CoV-2 (B.1); B.1, 50 uM, Vero E6, replicates, 50 µM): 99.9887% | inhibition at 0.1 µM (SARS-CoV-2 (B.1); Severe acute respiratory syndrome coronavirus 2, Vero C1008, 0.1 μM, replicates, sheet Fig.S3): 0% | inhibition at 0.5 µM (SARS-CoV-2 (B.1); Severe acute respiratory syndrome coronavirus 2, Vero C1008, 0.5 μM, replicates, sheet Fig.S3): 0% | inhibition at 1 µM (SARS-CoV-2 (B.1); Severe acute respiratory syndrome coronavirus 2, Vero C1008, 1 μM, replicates, sheet Fig.S3): 62.2% | inhibition at 2 µM (SARS-CoV-2 (B.1); Severe acute respiratory syndrome coronavirus 2, Vero C1008, 2 μM, replicates, sheet Fig.S3): 89.2% | inhibition at 5 µM (SARS-CoV-2 (B.1); Severe acute respiratory syndrome coronavirus 2, Vero C1008, 5 μM, replicates, sheet Fig.S3): 92.3% | inhibition at 10 µM (SARS-CoV-2 (B.1); Severe acute respiratory syndrome coronavirus 2, Vero C1008, 10 μM, replicates, sheet Fig.S3): 93.6% | inhibition at 0.01 µM (SARS-CoV-2 (B.1); Severe acute respiratory syndrome coronavirus 2, Vero C1008, B.1, 0.01 uM, Vero E6, replicates): 0% | inhibition at 0.1 µM (SARS-CoV-2 (B.1); Severe acute respiratory syndrome coronavirus 2, Vero C1008, B.1, 0.1 uM, Vero E6, replicates): 0% | inhibition at 0.25 µM (SARS-CoV-2 (B.1); Severe acute respiratory syndrome coronavirus 2, Vero C1008, B.1, 0.25 uM, Vero E6, replicates): 0% | inhibition at 0.5 µM (SARS-CoV-2 (B.1); Severe acute respiratory syndrome coronavirus 2, Vero C1008, B.1, 0.5 uM, Vero E6, replicates): 0% | inhibition at 1 µM (SARS-CoV-2 (B.1); Severe acute respiratory syndrome coronavirus 2, Vero C1008, B.1, 1 uM, Vero E6, replicates): 0% | inhibition at 5 µM (SARS-CoV-2 (B.1); Severe acute respiratory syndrome coronavirus 2, Vero C1008, B.1, 5 uM, Vero E6, replicates): 99.6% | inhibition at 10 µM (SARS-CoV-2 (B.1); Severe acute respiratory syndrome coronavirus 2, Vero C1008, B.1, 10 uM, Vero E6, replicates): 99.9% | inhibition at 50 µM (SARS-CoV-2 (B.1); Severe acute respiratory syndrome coronavirus 2, Vero C1008, B.1, 50 uM, Vero E6, replicates): 99.9% | EC90 (SARS-CoV-2 (B.1); Severe acute respiratory syndrome coronavirus 2, Vero C1008, read-out: EC90 (Confidence 95%), Vero-E6, B.1): 2.48 µM | EC50 (SARS-CoV-2 (B.1); Severe acute respiratory syndrome coronavirus 2, Vero C1008, MOI 0.05, 48 h): 2.19 µM | CC50 at 48 h [1]: > 50 µM | cell viability (% of control) (Vero E6 cells; 1 μM compound, 1 µM): 88.7524 % of control and 100.803 % of control and 120.919 % of control | cell viability (% of control) (Vero E6 cells; 2 μM compound, 2 µM): 88.0108 % of control and 98.9031 % of control and 128.104 % of control | cell viability (% of control) (Vero E6 cells; 5 μM compound, 5 µM): 90.8382 % of control and 109.656 % of control and 135.798 % of control | cell viability (% of control) (Vero E6 cells; 10 μM compound, 10 µM): 94.2217 % of control and 115.404 % of control and 120.363 % of control | cell viability (% of control) (Vero E6 cells; 20 μM compound, 20 µM): 80.7802 % of control and 92.136 % of control and 131.024 % of control | cell viability (% of control) (Vero E6 cells; 50 μM compound, 50 µM): 71.9737 % of control and 85.3225 % of control and 97.3272 % of control | EC50 ([2]; Severe acute respiratory syndrome coronavirus 2, Vero C1008, 48 h, read-out: EC50 in Vero E6 cells, SARS-CoV-2 (Delta, B.1.617.2)): 0.428 µM | inhibition at 0.01 µM ([2]; Severe acute respiratory syndrome coronavirus 2, Vero C1008, delta, 0.01 uM, Vero E6, replicates): 0% | inhibition at 0.1 µM ([2]; Severe acute respiratory syndrome coronavirus 2, Vero C1008, delta, 0.1 uM, Vero E6, replicates): 0% | inhibition at 0.25 µM ([2]; Severe acute respiratory syndrome coronavirus 2, Vero C1008, delta, 0.25 uM, Vero E6, replicates): 0% | inhibition at 0.5 µM ([2]; Severe acute respiratory syndrome coronavirus 2, Vero C1008, delta, 0.5 uM, Vero E6, replicates): 82.8% | inhibition at 1 µM ([2]; Severe acute respiratory syndrome coronavirus 2, Vero C1008, delta, 1 uM, Vero E6, replicates): 90.3% | inhibition at 2 µM ([2]; Severe acute respiratory syndrome coronavirus 2, Vero C1008, delta, 2 uM, Vero E6, replicates): 94.4% | inhibition at 5 µM ([2]; Severe acute respiratory syndrome coronavirus 2, Vero C1008, delta, 5 uM, Vero E6, replicates): 93.9% | inhibition at 10 µM ([2]; Severe acute respiratory syndrome coronavirus 2, Vero C1008, delta, 10 uM, Vero E6, replicates): 100% | EC90 ([2]; Severe acute respiratory syndrome coronavirus 2, Vero C1008, read-out: EC90 (Confidence 95%), Vero-E6, Delta B.1.617.2): 0.516 µM | % Inhibition ([2]; 0.01 uM, Vero E6, replicates): 0% | % Inhibition ([2]; 0.1 uM, Vero E6, replicates): 0% | % Inhibition ([2]; 0.25 uM, Vero E6, replicates): 0% | % Inhibition ([2]; 0.5 uM, Vero E6, replicates): 80.6558% | % Inhibition ([2]; 1 uM, Vero E6, replicates): 88.2825% | % Inhibition ([2]; 2 uM, Vero E6, replicates): 91.1914% | % Inhibition ([2]; 5 uM, Vero E6, replicates): 90.8502% | % Inhibition ([2]; 10 uM, Vero E6, replicates): 99.8554% | % Inhibition ([2]; 50 uM, Vero E6, replicates): 99.5879% | EC50 ([3]; Severe acute respiratory syndrome coronavirus 2, Vero C1008, 48 h, read-out: EC50 in Vero E6 cells, SARS-CoV-2 (Beta, B.1.351)): 2.85 µM | inhibition at 0.01 µM ([3]; Severe acute respiratory syndrome coronavirus 2, Vero C1008, beta, 0.01 uM, Vero E6, replicates): 0% | inhibition at 0.1 µM ([3]; Severe acute respiratory syndrome coronavirus 2, Vero C1008, beta, 0.1 uM, Vero E6, replicates): 0% | inhibition at 0.25 µM ([3]; Severe acute respiratory syndrome coronavirus 2, Vero C1008, beta, 0.25 uM, Vero E6, replicates): 0% | inhibition at 0.5 µM ([3]; Severe acute respiratory syndrome coronavirus 2, Vero C1008, beta, 0.5 uM, Vero E6, replicates): 0% | inhibition at 1 µM ([3]; Severe acute respiratory syndrome coronavirus 2, Vero C1008, beta, 1 uM, Vero E6, replicates): 0% | inhibition at 5 µM ([3]; Severe acute respiratory syndrome coronavirus 2, Vero C1008, beta, 5 uM, Vero E6, replicates): 99.7% | inhibition at 10 µM ([3]; Severe acute respiratory syndrome coronavirus 2, Vero C1008, beta, 10 uM, Vero E6, replicates): 99.9% | EC90 ([3]; Severe acute respiratory syndrome coronavirus 2, Vero C1008, read-out: EC90 (Confidence 95%), Vero-E6, Beta B.1.351): 3.41 µM | % Inhibition ([3]; 0.01 uM, Vero E6, replicates): 0% | % Inhibition ([3]; 0.1 uM, Vero E6, replicates): 0% | % Inhibition ([3]; 0.25 uM, Vero E6, replicates): 0% | % Inhibition ([3]; 0.5 uM, Vero E6, replicates): 0% | % Inhibition ([3]; 1 uM, Vero E6, replicates): 0% | % Inhibition ([3]; 2 uM, Vero E6, replicates): 6.056% and 0% | % Inhibition ([3]; 5 uM, Vero E6, replicates): 99.5481% | % Inhibition ([3]; 10 uM, Vero E6, replicates): 99.9499% | % Inhibition ([3]; 50 uM, Vero E6, replicates): 99.982% | EC50 ([4]; Severe acute respiratory syndrome coronavirus 2, Huh-7, read-out: EC50 (Confidence 95%) in Huh7 cells): 0.905 µM | EC90 ([4]; Severe acute respiratory syndrome coronavirus 2, Huh-7, read-out: EC90 (Confidence 95%) in Huh7 cells): 1.17 µM | EC50 ([5]; read-out: EC50 (Confidence 95%), replicon): 0.433 µM | EC90 ([5]; read-out: EC90 (Confidence 95%), replicon): 0.576 µM
